The supplement of paper PMC10307832

Experiments:
Assay in all cases: relative viability (nuclei count vs DMSO), 5 days (fraction); higher = more cells survive
[1] = compound: Cn1cncc1[C@@](N)(c1ccc(Cl)cc1)c1ccc2c(c1)c(-c1cccc(Cl)c1)cc(=O)n2C [Tipifarnib] + CS(=O)(=O)CCNCc1ccc(-c2ccc3ncnc(Nc4ccc(OCc5cccc(F)c5)c(Cl)c4)c3c2)o1 [Lapatinib] (partner 2 µM)
In short: (§1)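 Relative viability divides the nuclei count in treated wells by that in vehicle wells. Lung cancer cell lines were seeded in 1536-well plates, dosed by pin tool the next day, and fixed and stained after 5 days in one step with final 0.05% Triton X-100, 1% formaldehyde and 1 ug/ml Hoechst. Dosing was a single drug or a fixed anchor-drug dose plus five library-drug doses (not always all listed) in √10 steps, and values are medians of duplicate plates imaged at 4×.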

[2] = compound: Cn1cncc1[C@@](N)(c1ccc(Cl)cc1)c1ccc2c(c1)c(-c1cccc(Cl)c1)cc(=O)n2C [Tipifarnib] + C[C@@H](Oc1cc(-c2cnn(C3CCNCC3)c2)cnc1N)c1c(Cl)ccc(F)c1Cl [Crizotinib] (partner 1 µM)
In short: as §1

[3] = compound: Cn1cncc1[C@@](N)(c1ccc(Cl)cc1)c1ccc2c(c1)c(-c1cccc(Cl)c1)cc(=O)n2C [Tipifarnib] + Cc1nc(Nc2ncc(C(=O)Nc3c(C)cccc3Cl)s2)cc(N2CCN(CCO)CC2)n1 [Dasatinib] (partner 0.075 µM)
In short: as §1

[4] = compound: Cn1cncc1[C@@](N)(c1ccc(Cl)cc1)c1ccc2c(c1)c(-c1cccc(Cl)c1)cc(=O)n2C [Tipifarnib] + Nc1nc2[nH]cc(CCc3ccc(C(=O)N[C@@H](CCC(=O)O)C(=O)O)cc3)c2c(=O)[nH]1 [Pemetrexed] (partner 0.2 µM)
In short: as §1

Row | Cell Line | relative viability ([1]; first compound 0.01 µM) | relative viability ([1]; first compound 0.03162 µM) | relative viability ([1]; first compound 0.1 µM) | relative viability ([1]; first compound 0.3162 µM) | relative viability ([1]; first compound 1 µM) | relative viability ([2]; first compound 0.01 µM) | relative viability ([2]; first compound 0.03162 µM) | relative viability ([2]; first compound 0.1 µM) | relative viability ([2]; first compound 0.3162 µM) | relative viability ([2]; first compound 1 µM) | relative viability ([3]; first compound 0.01 µM) | relative viability ([3]; first compound 0.03162 µM) | relative viability ([3]; first compound 0.1 µM) | relative viability ([3]; first compound 0.3162 µM) | relative viability ([3]; first compound 1 µM) | relative viability ([4]; first compound 0.01 µM) | relative viability ([4]; first compound 0.03162 µM) | relative viability ([4]; first compound 0.1 µM) | relative viability ([4]; first compound 0.3162 µM) | relative viability ([4]; first compound 1 µM)
1 | NCI-H647 | 1.17 | 0.792 | 0.693 | 0.668 | 0.176 | 0.76 | 0.618 | 0.515 | 0.367 | 0.521 | 0.205 | 0.159 | 0.167 | 0.127 | 0.0682 | 0.209 | 0.213 | 0.157 | 0.139 | 0.116
2 | A-427 | 1 | 1.13 | 1.08 | 0.893 | 0.46 | 1.01 | 0.866 | 0.782 | 0.732 | 0.844 | 0.753 | 0.719 | 0.598 | 0.494 | 0.326 | 0.998 | 1.06 | 0.82 | 0.979 | 0.739
3 | COR-L 105 | 0.418 | 0.317 | 0.349 | 0.378 | 0.296 | 0.538 | 0.392 | 0.383 | 0.407 | 0.317 | 0.32 | 0.355 | 0.341 | 0.327 | 0.255 | 1.16 | 1.11 | 0.814 | 0.784 | 0.793
4 | NCI-H2126 | 0.782 | 0.724 | 0.769 | 0.761 | 0.469 | 0.977 | 1.01 | 1.02 | 0.924 | 0.904 | 0.652 | 0.673 | 0.648 | 0.578 | 0.391 | 0.666 | 0.691 | 0.676 | 0.642 | 0.503
5 | NCI-H460 | 0.987 | 0.431 | 0.285 | 0.195 | 0.0315 | 1.12 | 0.249 | 0.133 | 0.0704 | 0.0599 | 0.512 | 0.514 | 0.307 | 0.146 | 0.0594 | 0.0634 | 0.0696 | 0.0701 | 0.06 | 0.0551
6 | SK-LU-1 | 0.725 | 0.75 | 0.857 | 0.388 | 0.367 | 0.932 | 0.665 | 0.667 | 0.639 | 0.657 | 0.16 | 0.152 | 0.156 | 0.14 | 0.133 | 0.961 | 0.931 | 0.723 | 0.63 | 0.5
7 | NCI-H322M | 0.637 | 0.662 | 0.622 | 0.688 | 0.505 | 0.874 | 0.854 | 0.79 | 0.463 | 0.587 | 0.236 | 0.27 | 0.259 | 0.246 | 0.285 | 0.605 | 0.681 | 0.68 | 0.641 | 0.625
8 | EKVX | 0.202 | 0.21 | 0.185 | 0.189 | 0.17 | 0.932 | 0.936 | 0.733 | 0.618 | 0.581 | 0.543 | 0.613 | 0.512 | 0.508 | 0.641 | 0.433 | 0.396 | 0.39 | 0.411 | 0.289
9 | NCI-H1734 | 1.18 | 0.995 | 0.682 | 0.618 | 0.431 | 0.802 | 0.589 | 0.425 | 0.444 | 0.352 | 0.465 | 0.389 | 0.347 | 0.274 | 0.22 | 0.38 | 0.442 | 0.428 | 0.419 | 0.394
10 | NCI-H520 | 0.996 | 0.79 | 0.838 | 0.708 | 0.321 | 1.05 | 0.598 | 0.645 | 0.341 | 0.345 | 0.163 | 0.185 | 0.183 | 0.163 | 0.142 | 0.726 | 0.652 | 0.574 | 0.511 | 0.528
11 | EPLC-272H | 1.02 | 0.88 | 0.761 | 0.64 | 0.216 | 1 | 0.722 | 0.766 | 0.64 | 0.265 | 0.417 | 0.285 | 0.296 | 0.304 | 0.158 | 0.248 | 0.364 | 0.358 | 0.35 | 0.252
12 | UMC-11 | 0.84 | 0.605 | 0.595 | 0.475 | 0.281 | 0.24 | 0.278 | 0.224 | 0.181 | 0.184 | 0.419 | 0.441 | 0.422 | 0.357 | 0.29 | 0.578 | 0.65 | 0.499 | 0.46 | 0.424
13 | NCI-H1792 | 0.942 | 0.941 | 0.782 | 0.574 | 0.298 | 1.02 | 0.888 | 0.742 | 0.54 | 0.438 | 1.01 | 0.821 | 0.571 | 0.524 | 0.484 | 0.681 | 0.332 | 0.416 | 0.157 | 0.118
14 | NCI-H1993 | 0.747 | 0.835 | 0.699 | 0.716 | 0.779 | 0.77 | 0.749 | 0.617 | 0.595 | 0.661 | 0.596 | 0.515 | 0.495 | 0.527 | 0.516 | 0.664 | 0.55 | 0.647 | 0.427 | 0.605
15 | NCI-H596 | 0.99 | 1.09 | 1.04 | 0.868 | 0.608 | 1.09 | 0.974 | 1.03 | 0.945 | 0.813 | 0.612 | 0.653 | 0.527 | 0.423 | 0.384 | 0.488 | 0.492 | 0.482 | 0.528 | 0.514
16 | NCI-H1563 | 1 | 0.956 | 1.02 | 0.891 | 0.879 | 0.841 | 0.81 | 0.853 | 0.813 | 0.888 | 0.44 | 0.53 | 0.453 | 0.489 | 0.387 | 0.731 | 0.799 | 0.777 | 0.655 | 0.665
17 | HCC-827 | 0.184 | 0.208 | 0.152 | 0.186 | 0.172 | 0.868 | 0.883 | 0.712 | 0.617 | 0.552 | 0.372 | 0.363 | 0.446 | 0.403 | 0.431 | 0.273 | 0.32 | 0.286 | 0.25 | 0.275
18 | NCI-H2228 | 1.02 | 0.705 | 0.782 | 0.444 | 0.315 | 0.413 | 0.443 | 0.45 | 0.293 | 0.348 | 0.531 | 0.52 | 0.456 | 0.266 | 0.184 | 0.364 | 0.34 | 0.361 | 0.296 | 0.333
19 | NCI-H2170 | 0.245 | 0.271 | 0.272 | 0.265 | 0.248 | 1.33 | 1.04 | 1.1 | 0.857 | 0.644 | 0.688 | 0.805 | 0.601 | 0.636 | 0.462 | 0.257 | 0.291 | 0.269 | 0.243 | 0.242
20 | EMC-BAC-2 | 0.897 | 0.854 | 0.771 | 0.718 | 0.351 | 0.737 | 0.621 | 0.659 | 0.534 | 0.526 | 0.324 | 0.336 | 0.319 | 0.305 | 0.258 | 0.412 | 0.434 | 0.45 | 0.462 | 0.469
21 | NCI-H23 | 1.4 | 0.949 | 0.717 | 0.439 | 0.23 | 0.579 | 0.491 | 0.386 | 0.311 | 0.249 | 0.76 | 0.711 | 0.667 | 0.473 | 0.282 | 0.714 | 0.602 | 0.588 | 0.466 | 0.242
22 | RERF-LC-KJ | 0.94 | 0.922 | 0.829 | 0.732 | 0.626 | 0.794 | 0.847 | 0.754 | 0.633 | 0.713 | 0.884 | 0.778 | 0.724 | 0.535 | 0.574 | 0.474 | 0.6 | 0.46 | 0.427 | 0.362
23 | NCI-H358 | 0.455 | 0.444 | 0.443 | 0.424 | 0.352 | 0.563 | 0.261 | 0.35 | 0.245 | 0.23 | 0.142 | 0.224 | 0.157 | 0.169 | 0.155 | 0.183 | 0.185 | 0.193 | 0.182 | 0.169
24 | LC-2-ad | 0.843 | 0.592 | 0.367 | 0.436 | 0.178 | 0.399 | 0.391 | 0.382 | 0.349 | 0.35 | 0.54 | 0.545 | 0.496 | 0.277 | 0.336 | 0.273 | 0.271 | 0.283 | 0.265 | 0.275
25 | HCC-15 | 0.802 | 0.702 | 0.639 | 0.488 | 0.215 | 0.666 | 0.601 | 0.396 | 0.41 | 0.448 | 0.627 | 0.556 | 0.444 | 0.377 | 0.168 | 0.227 | 0.254 | 0.226 | 0.222 | 0.232
26 | NCI-H2405 | 1.06 | 0.942 | 0.949 | 0.878 | 0.625 | 0.896 | 0.827 | 0.837 | 0.804 | 0.712 | 0.188 | 0.208 | 0.219 | 0.228 | 0.217 | 1.03 | 1.07 | 0.964 | 0.967 | 0.866
